# Assay results reported in patent US20050197350A1, “Novel quinoline, tetrahydroquinazoline, and pyrimidine derivatives and methods of treatment related to the use thereof” (TAISHO PHARMACEUTICAL CO., LTD., priority 2003, published 2005).
# System: MCH receptors
# Assay: MCH receptor activity class (method not given)
# Conditions: MCH receptor; class by percent of control at 10^-7 M or IC50
row,SMILES,class
1,COc1cc(C(=O)N[C@H]2CC[C@@H](Nc3cc(N(C)C)c4ccccc4n3)CC2)cc(OC)c1OC [compound 115],3 (Class 3 The value of percent of control at 10^−7 M was more than 60% or the value of IC50 was more than 200 nM.)
2,CN(C)c1cc(N[C@H]2CC[C@@H](NC(=O)c3cccc(C(F)(F)F)c3)CC2)nc2ccccc12 [compound 116],3 (Class 3 The value of percent of control at 10^−7 M was more than 60% or the value of IC50 was more than 200 nM.)
3,CN(C)c1cc(N[C@H]2CC[C@@H](NC(=O)c3ccc(C(F)(F)F)cc3)CC2)nc2ccccc12 [compound 117],3 (Class 3 The value of percent of control at 10^−7 M was more than 60% or the value of IC50 was more than 200 nM.)
4,CN(C)c1cc(N[C@H]2CC[C@@H](NC(=O)c3ccccc3OC(F)(F)F)CC2)nc2ccccc12 [compound 118],3 (Class 3 The value of percent of control at 10^−7 M was more than 60% or the value of IC50 was more than 200 nM.)
5,COc1cc(COC(=O)N[C@H]2CC[C@@H](Nc3cc(N(C)C)c4ccccc4n3)CC2)c([N+](=O)[O-])cc1OC [compound 119],3 (Class 3 The value of percent of control at 10^−7 M was more than 60% or the value of IC50 was more than 200 nM.)
6,CN(C)c1cc(N[C@H]2CC[C@@H](NC(=O)CCCOc3ccccc3)CC2)nc2ccccc12 [compound 120],3 (Class 3 The value of percent of control at 10^−7 M was more than 60% or the value of IC50 was more than 200 nM.)
7,COc1ccc(Br)c(C(=O)N[C@H]2CC[C@@H](Nc3cc(N(C)C)c4ccccc4n3)CC2)c1 [compound 121],3 (Class 3 The value of percent of control at 10^−7 M was more than 60% or the value of IC50 was more than 200 nM.)
8,CN(C)c1cc(N[C@H]2CC[C@@H](NC(=O)COc3c(F)c(F)c(F)c(F)c3F)CC2)nc2ccccc12 [compound 122],3 (Class 3 The value of percent of control at 10^−7 M was more than 60% or the value of IC50 was more than 200 nM.)
9,COc1ccc(CC(=O)N[C@H]2CC[C@@H](Nc3cc(N(C)C)c4ccccc4n3)CC2)cc1OC [compound 123],3 (Class 3 The value of percent of control at 10^−7 M was more than 60% or the value of IC50 was more than 200 nM.)
10,CN(C)c1cc(N[C@H]2CC[C@@H](NC(=O)c3ccc(F)c(F)c3F)CC2)nc2ccccc12 [compound 124],3 (Class 3 The value of percent of control at 10^−7 M was more than 60% or the value of IC50 was more than 200 nM.)
11,CN(C)c1cc(N[C@H]2CC[C@@H](NC(=O)C3CCCC3)CC2)nc2ccccc12 [compound 125],3 (Class 3 The value of percent of control at 10^−7 M was more than 60% or the value of IC50 was more than 200 nM.)
12,"CN(C)c1cc(N[C@H]2CC[C@@H](NC(=O)c3ccc(F)cc3F)CC2)nc2ccccc12 [compound 126, N-(cis-4-{[4-(dimethylamino)quinolin-2-yl]amino}cyclohexyl)-2,4-difluorobenzamide]",3 (Class 3 The value of percent of control at 10^−7 M was more than 60% or the value of IC50 was more than 200 nM.)
13,CN(C)c1cc(N[C@H]2CC[C@@H](NC(=O)CCc3ccccc3)CC2)nc2ccccc12 [compound 127],3 (Class 3 The value of percent of control at 10^−7 M was more than 60% or the value of IC50 was more than 200 nM.)
14,CN(C)c1cc(N[C@H]2CC[C@@H](NC(=O)c3cc(F)c(F)c(F)c3F)CC2)nc2ccccc12 [compound 128],3 (Class 3 The value of percent of control at 10^−7 M was more than 60% or the value of IC50 was more than 200 nM.)
15,CCOc1ccc2ccccc2c1C(=O)N[C@H]1CC[C@@H](Nc2cc(N(C)C)c3ccccc3n2)CC1 [compound 129],3 (Class 3 The value of percent of control at 10^−7 M was more than 60% or the value of IC50 was more than 200 nM.)
16,CN(C)c1cc(N[C@H]2CC[C@@H](NC(=O)c3c(F)c(F)c(F)c(F)c3F)CC2)nc2ccccc12 [compound 130],3 (Class 3 The value of percent of control at 10^−7 M was more than 60% or the value of IC50 was more than 200 nM.)
17,CN(C)c1cc(N[C@H]2CC[C@@H](NC(=O)c3ccc(SC(F)(F)F)cc3)CC2)nc2ccccc12 [compound 131],3 (Class 3 The value of percent of control at 10^−7 M was more than 60% or the value of IC50 was more than 200 nM.)
18,CN(C)c1cc(N[C@H]2CC[C@@H](NC(=O)c3sc(Cl)c(Cl)c3Cl)CC2)nc2ccccc12 [compound 132],3 (Class 3 The value of percent of control at 10^−7 M was more than 60% or the value of IC50 was more than 200 nM.)
19,CN(C)c1cc(N[C@H]2CC[C@@H](NC(=O)COc3cccc(Cl)c3)CC2)nc2ccccc12 [compound 133],1 (Class 1: The value of percent of control at 10^−7 M was less than 40% or the value of IC50 was less than 50 nM.)
20,Cc1onc(-c2c(Cl)cccc2Cl)c1C(=O)N[C@H]1CC[C@@H](Nc2cc(N(C)C)c3ccccc3n2)CC1 [compound 134],1 (Class 1: The value of percent of control at 10^−7 M was less than 40% or the value of IC50 was less than 50 nM.)

row,SMILES,class
1,"CN(C)c1cc(N[C@H]2CC[C@@H](NC(=O)c3cccnc3Oc3ccccc3)CC2)nc2ccccc12 [compound 135, N-(cis-4-{[4-(dimethylamino)quinolin-2-yl]amino}cyclohexyl)-2-phenoxynicotinamide]",1 (Class 1: The value of percent of control at 10^−7 M was less than 40% or the value of IC50 was less than 50 nM.)
2,CN(C)c1cc(N[C@H]2CC[C@@H](NC(=O)c3cccnc3Sc3ccccc3)CC2)nc2ccccc12 [compound 136],3 (Class 3 The value of percent of control at 10^−7 M was more than 60% or the value of IC50 was more than 200 nM.)
3,"Cc1ccc(Oc2ncccc2C(=O)N[C@H]2CC[C@@H](Nc3cc(N(C)C)c4ccccc4n3)CC2)cc1 [compound 137, N-(cis-4-{[4-(dimethylamino)quinolin-2-yl]amino}cyclohexyl)-2-(4-methylphenoxy)nicotinamide]",1 (Class 1: The value of percent of control at 10^−7 M was less than 40% or the value of IC50 was less than 50 nM.)
4,CCCN(CCC)S(=O)(=O)c1ccc(C(=O)N[C@H]2CC[C@@H](Nc3cc(N(C)C)c4ccccc4n3)CC2)cc1 [compound 138],3 (Class 3 The value of percent of control at 10^−7 M was more than 60% or the value of IC50 was more than 200 nM.)
5,CN(C)c1cc(N[C@H]2CC[C@@H](NC(=O)C(C)(C)Oc3ccc(Cl)cc3)CC2)nc2ccccc12 [compound 139],3 (Class 3 The value of percent of control at 10^−7 M was more than 60% or the value of IC50 was more than 200 nM.)
6,CN(C)c1cc(N[C@H]2CC[C@@H](NC(=O)c3cc(-c4ccc(Cl)cc4)oc3C(F)(F)F)CC2)nc2ccccc12 [compound 140],3 (Class 3 The value of percent of control at 10^−7 M was more than 60% or the value of IC50 was more than 200 nM.)
7,CN(C)c1cc(N[C@H]2CC[C@@H](NC(=O)c3csc(-c4ccc5c(c4)CCO5)n3)CC2)nc2ccccc12 [compound 141],3 (Class 3 The value of percent of control at 10^−7 M was more than 60% or the value of IC50 was more than 200 nM.)
8,CN(C)c1cc(N[C@H]2CC[C@@H](NC(=O)c3cc(C(C)(C)C)nn3Cc3ccc(Cl)cc3Cl)CC2)nc2ccccc12 [compound 142],3 (Class 3 The value of percent of control at 10^−7 M was more than 60% or the value of IC50 was more than 200 nM.)
9,CN(C)c1cc(N[C@H]2CC[C@@H](NC(=O)C3=Cc4cc(Cl)ccc4OC3)CC2)nc2ccccc12 [compound 143],3 (Class 3 The value of percent of control at 10^−7 M was more than 60% or the value of IC50 was more than 200 nM.)
10,CN(C)c1cc(N[C@H]2CC[C@@H](NC(=O)c3ccc(OC(F)(F)F)c(Cl)c3)CC2)nc2ccccc12 [compound 144],3 (Class 3 The value of percent of control at 10^−7 M was more than 60% or the value of IC50 was more than 200 nM.)
11,Cc1cc(=O)oc2c(OCC(=O)N[C@H]3CC[C@@H](Nc4cc(N(C)C)c5ccccc5n4)CC3)cccc12 [compound 145],3 (Class 3 The value of percent of control at 10^−7 M was more than 60% or the value of IC50 was more than 200 nM.)
12,"CN(C)c1cc(N[C@H]2CC[C@@H](NC(=O)c3csc(-c4cccs4)n3)CC2)nc2ccccc12 [compound 146, N-(cis-4-{[4-(dimethylamino)quinolin-2-yl]amino}cyclohexyl)-2-(2-thienyl)-1,3-thiazole-4-carboxamide]",1 (Class 1: The value of percent of control at 10^−7 M was less than 40% or the value of IC50 was less than 50 nM.)
13,"COc1cccc(C(=O)NC[C@H]2CC[C@@H](Nc3cc(N(C)C)c4ccccc4n3)CC2)c1 [compound 147, N-[(cis-4-{[4-(dimethylamino)quinolin-2-yl]amino}cyclohexyl)methyl]-3-methoxybenzamide]",3 (Class 3 The value of percent of control at 10^−7 M was more than 60% or the value of IC50 was more than 200 nM.)
14,CN(C)c1cc(N[C@H]2CC[C@@H](CNC(=O)c3cccc(Br)c3)CC2)nc2ccccc12 [compound 148],3 (Class 3 The value of percent of control at 10^−7 M was more than 60% or the value of IC50 was more than 200 nM.)
15,CN(C)c1cc(N[C@H]2CC[C@@H](CNC(=O)c3ccc(Br)cc3)CC2)nc2ccccc12 [compound 149],3 (Class 3 The value of percent of control at 10^−7 M was more than 60% or the value of IC50 was more than 200 nM.)
16,"CN(C)c1cc(N[C@H]2CC[C@@H](CNC(=O)c3ccc4nonc4c3)CC2)nc2ccccc12 [compound 150, N-[(cis-4-{[4-(dimethylamino)quinolin-2-yl]amino}cyclohexyl)methyl]-2,1,3-benzoxadiazole-5-carboxamide]",3 (Class 3 The value of percent of control at 10^−7 M was more than 60% or the value of IC50 was more than 200 nM.)
17,CN(C)c1cc(N[C@H]2CC[C@@H](CNC(=O)c3cccc(Cl)c3)CC2)nc2ccccc12 [compound 151],3 (Class 3 The value of percent of control at 10^−7 M was more than 60% or the value of IC50 was more than 200 nM.)
18,CN(C)c1cc(N[C@H]2CC[C@@H](CNC(=O)c3ccc(Cl)cc3)CC2)nc2ccccc12 [compound 152],3 (Class 3 The value of percent of control at 10^−7 M was more than 60% or the value of IC50 was more than 200 nM.)
19,CN(C)c1cc(N[C@H]2CC[C@@H](CNC(=O)/C=C/c3ccccc3)CC2)nc2ccccc12 [compound 153],3 (Class 3 The value of percent of control at 10^−7 M was more than 60% or the value of IC50 was more than 200 nM.)
